Test results as given in PubChem BioAssay AID270 (DTP/NCI, 2004).
“And” between values parts separate entries of the source, which are not always exact repeats. Equal values may be shown once. Records with an inconclusive call do not appear.

System: BDF1 mice, s.c. Lewis lung carcinoma, T/C %
Assay: NCI In Vivo Anticancer Drug Screen. Data for tumor model Lewis Lung Carcinoma (subcutaneous) in B6D2F1 (BDF1) mice
Experimental: The antitumor activity of compounds was measured in mice bearing transplantable tumors. Survival or tumor size were measured and the results are expressed as the measurement made in the treated group (T) divided by the measurement made in the vehicle treated control group (C). The tumor model used in this assay is Lewis Lung Carcinoma (subcutaneous) in B6D2F1 (BDF1) mice

[1] = endpoint: median survival time, dose: 0.5 mg/kg/injection, schedule: Q01DX009 (ip), vehicle: saline with Tween-80, higher = longer survival
[2] = endpoint: median survival time, dose: 1.0 mg/kg/injection, schedule: Q01DX009 (ip), vehicle: saline with Tween-80, higher = longer survival
[3] = endpoint: median survival time, dose: 2.5 mg/kg/injection, schedule: Q01DX009 (ip), vehicle: saline, higher = longer survival
[4] = endpoint: median survival time, dose: 5.0 mg/kg/injection, schedule: Q01DX009 (ip), vehicle: saline, higher = longer survival
[5] = endpoint: median survival time, dose: 10.0 mg/kg/injection, schedule: Q01DX009 (ip), vehicle: saline, higher = longer survival

`ClCCCN1CCCCC1CCl` (stereo not drawn) was tested, and the T/C (endpoint: median survival time, dose: 3.12 mg/kg/injection, schedule: Q04DX003 (ip), vehicle: saline, higher = longer survival) was 96 % of control, the T/C (endpoint: median survival time, dose: 6.25 mg/kg/injection, schedule: Q04DX003 (ip), vehicle: saline, higher = longer survival) was 113 % of control and the T/C (endpoint: median survival time, dose: 12.5 mg/kg/injection, schedule: Q04DX003 (ip), vehicle: saline, higher = longer survival) was 104 % of control.

`Cc1ccc(N2CCN(CCCN3CCN(c4ccc(Cl)cc4)CC3)CC2)cc1` was tested, and the T/C (endpoint: mean tumor weight, dose: 12.5 mg/kg/injection, schedule: Q01DX011 (ip), vehicle: other, higher = larger tumour) was 66 % of control, the T/C (endpoint: mean tumor weight, dose: 25.0 mg/kg/injection, schedule: Q01DX011 (ip), vehicle: other, higher = larger tumour) was 108 % of control and the T/C (endpoint: mean tumor weight, dose: 50.0 mg/kg/injection, schedule: Q01DX011 (ip), vehicle: other, higher = larger tumour) was 70 % of control. For the same compound, the T/C (endpoint: mean tumor weight, dose: 100.0 mg/kg/injection, schedule: Q01DX011 (ip), vehicle: other, higher = larger tumour) was 50 % of control.

`ClCCn1cnc2c(SCc3ccccc3)ncnc21` was tested, and the T/C (endpoint: mean tumor weight, dose: 60.0 mg/kg/injection, schedule: Q01DX011 (ip), vehicle: other, higher = larger tumour) was 107 % of control, the T/C (endpoint: mean tumor weight, dose: 120.0 mg/kg/injection, schedule: Q01DX011 (ip), vehicle: other, higher = larger tumour) was 77 % of control and the T/C (endpoint: mean tumor weight, dose: 240.0 mg/kg/injection, schedule: Q01DX011 (ip), vehicle: other, higher = larger tumour) was 46 % of control.

For `CN(/N=N/c1nc[nH]c1C(N)=O)C(C)(C)C`, the T/C (endpoint: median survival time, dose: 200.0 mg/kg/injection, schedule: Q01DX009 (ip), vehicle: Klucel (hydroxypropylcellulose) (HPC), higher = longer survival) was 109 % of control and the T/C (endpoint: median survival time, dose: 400.0 mg/kg/injection, schedule: Q01DX009 (ip), vehicle: Klucel (hydroxypropylcellulose) (HPC), higher = longer survival) was 90 % of control.

For `CN(Cc1cnc2nc(N)nc(N)c2n1)c1ccc(C(=O)N[C@@H](CCC(=O)O)C(=O)O)cc1`, the T/C (endpoint: mean tumor weight, dose: 0.5 mg/kg/injection, schedule: Q01DX011 (ip), vehicle: alkali diluted with saline, higher = larger tumour) was 91 % of control, the T/C (endpoint: mean tumor weight, dose: 0.5 mg/kg/injection, schedule: Q01DX011 (ip), vehicle: carboxymethylcellulose (CMC), higher = larger tumour) was 97 % of control and the T/C (endpoint: mean tumor weight, dose: 0.75 mg/kg/injection, schedule: Q01DX011 (ip), vehicle: alkali diluted with saline, higher = larger tumour) was 111 % of control. The T/C (endpoint: mean tumor weight, dose: 1.0 mg/kg/injection, schedule: Q01DX011 (ip), vehicle: alkali diluted with saline, higher = larger tumour) was 83 % of control, the T/C (endpoint: mean tumor weight, dose: 1.0 mg/kg/injection, schedule: Q01DX011 (ip), vehicle: carboxymethylcellulose (CMC), higher = larger tumour) was 91 % of control and the T/C (endpoint: mean tumor weight, dose: 1.5 mg/kg/injection, schedule: Q01DX011 (ip), vehicle: alkali diluted with saline, higher = larger tumour) was 93 % of control. For the same compound, the T/C (endpoint: mean tumor weight, dose: 2.0 mg/kg/injection, schedule: Q01DX011 (ip), vehicle: alkali diluted with saline, higher = larger tumour) was 72 % of control, the T/C (endpoint: mean tumor weight, dose: 2.0 mg/kg/injection, schedule: Q01DX011 (ip), vehicle: carboxymethylcellulose (CMC), higher = larger tumour) was 90 % of control and the T/C (endpoint: mean tumor weight, dose: 4.0 mg/kg/injection, schedule: Q01DX011 (ip), vehicle: carboxymethylcellulose (CMC), higher = larger tumour) was 25 % of control. For the same compound, the T/C (endpoint: median survival time, dose: 0.5 mg/kg/injection, schedule: Q01DX009 (ip), vehicle: Klucel (hydroxypropylcellulose) (HPC), higher = longer survival) was 107 % of control, the T/C [1] was 89 % of control and 100 % of control and the T/C (endpoint: median survival time, dose: 1.0 mg/kg/injection, schedule: Q01DX009 (ip), vehicle: Klucel (hydroxypropylcellulose) (HPC), higher = longer survival) was 112 % of control. The T/C [2] was 93 % of control, the T/C (endpoint: median survival time, dose: 1.0 mg/kg/injection, schedule: Q01DX009 (ip), vehicle: saline, higher = longer survival) was 100 % of control and the T/C (endpoint: median survival time, dose: 2.0 mg/kg/injection, schedule: Q01DX009 (ip), vehicle: saline, higher = longer survival) was 102 % of control. For the same compound, the T/C (endpoint: median survival time, dose: 4.0 mg/kg/injection, schedule: Q01DX009 (ip), vehicle: Klucel (hydroxypropylcellulose) (HPC), higher = longer survival) was 121 % of control, the T/C (endpoint: median tumor weight (est.), dose: 0.5 mg/kg/injection, schedule: Q01DX009 (ip), vehicle: saline with Tween-80, higher = larger tumour) was 95 % of control and the T/C (endpoint: median tumor weight (est.), dose: 1.0 mg/kg/injection, schedule: Q01DX009 (ip), vehicle: saline with Tween-80, higher = larger tumour) was 86 % of control. The T/C (endpoint: median tumor weight (est.), dose: 1.4 mg/kg/injection, schedule: Q01DX011 (ip), vehicle: sodium bicarbonate, higher = larger tumour) was 99 % of control and the T/C (endpoint: median tumor weight (est.), dose: 2.1 mg/kg/injection, schedule: Q01DX011 (ip), vehicle: sodium bicarbonate, higher = larger tumour) was 74 % of control.

`CC1(C)C(CC(=O)O)CC1C(=O)O` (stereo not drawn) was tested, and the T/C (endpoint: mean tumor weight, dose: 166.0 mg/kg/injection, schedule: Q01DX011 (ip), vehicle: other, higher = larger tumour) was 78 % of control.

With `COc1cc(NC(=O)CN(CCCl)CCCl)cc(OC)c1OC` the T/C (endpoint: median survival time, dose: 50.0 mg/kg/injection, schedule: Q01DX009 (ip), vehicle: saline with Tween-80, higher = longer survival) was 88 % of control, the T/C (endpoint: median survival time, dose: 100.0 mg/kg/injection, schedule: Q01DX009 (ip), vehicle: saline with Tween-80, higher = longer survival) was 98 % of control and the T/C (endpoint: median survival time, dose: 200.0 mg/kg/injection, schedule: Q01DX009 (ip), vehicle: saline with Tween-80, higher = longer survival) was 94 % of control.

In the case of `CC[C@]1(O)C[C@H](OC2CC(N(C)C)C(OC3CC(O)C(O)C(C)O3)C(C)O2)c2c(cc3c(c2O)C(=O)c2c(O)ccc(O)c2C3=O)[C@H]1C(=O)OC` (stereo partly drawn), the T/C (endpoint: median survival time, dose: 0.25 mg/kg/injection, schedule: Q01DX009 (ip), vehicle: saline with Tween-80, higher = longer survival) is reported as 118 % of control, the T/C [1] is reported as 110 % of control and the T/C [2] is reported as 123 % of control. The T/C (endpoint: median survival time, dose: 2.0 mg/kg/injection, schedule: Q01DX009 (ip), vehicle: saline with Tween-80, higher = longer survival) was 110 % of control.

`O=NN(CCCl)C(=O)Nc1cc2c3ccccc3ccc2c2ccccc12` was tested, and the T/C (endpoint: median survival time, dose: 3.12 mg/kg/injection, schedule: Q01DX009 (ip), vehicle: Klucel (hydroxypropylcellulose) (HPC), higher = longer survival) was 95 % of control, the T/C (endpoint: median survival time, dose: 6.25 mg/kg/injection, schedule: Q01DX009 (ip), vehicle: Klucel (hydroxypropylcellulose) (HPC), higher = longer survival) was 100 % of control and the T/C (endpoint: median survival time, dose: 12.5 mg/kg/injection, schedule: Q01DX009 (ip), vehicle: Klucel (hydroxypropylcellulose) (HPC), higher = longer survival) was 96 % of control.

With `O=CC(NC(=O)N(CCCl)N=O)C(O)C(O)C(O)CO` (stereo not drawn) the T/C (endpoint: median survival time, dose: 1.25 mg/kg/injection, schedule: Q01DX009 (ip), vehicle: saline, higher = longer survival) was 121 % of control, the T/C [3] was 112 % of control and the T/C (endpoint: median survival time, dose: 3.3 mg/kg/injection, schedule: Q01DX009 (ip), vehicle: saline, higher = longer survival) was 105 % of control. For the same compound, the T/C (endpoint: median survival time, dose: 4.9 mg/kg/injection, schedule: Q01DX009 (ip), vehicle: saline, higher = longer survival) was 102 % of control, the T/C [4] was 118 % of control and the T/C (endpoint: median survival time, dose: 7.4 mg/kg/injection, schedule: Q01DX009 (ip), vehicle: saline, higher = longer survival) was 96 % of control. The T/C (endpoint: median survival time, dose: 10.0 mg/kg/injection, schedule: Q01DX001 (ip), vehicle: Klucel (hydroxypropylcellulose) (HPC), higher = longer survival) was 88 % of control and 109 % of control, the T/C [5] was 111 % of control and the T/C (endpoint: median survival time, dose: 12.0 mg/kg/injection, schedule: Q04DX003 (ip), vehicle: saline, higher = longer survival) was 93 % of control. The T/C (endpoint: median survival time, dose: 16.0 mg/kg/injection, schedule: Q01DX001 (ip), vehicle: saline, higher = longer survival) was 110 % of control, the T/C (endpoint: median survival time, dose: 18.0 mg/kg/injection, schedule: Q04DX003 (ip), vehicle: saline, higher = longer survival) was 108 % of control and the T/C (endpoint: median survival time, dose: 20.0 mg/kg/injection, schedule: Q01DX001 (ip), vehicle: Klucel (hydroxypropylcellulose) (HPC), higher = longer survival) was 95 % of control. The T/C (endpoint: median survival time, dose: 24.0 mg/kg/injection, schedule: Q01DX001 (ip), vehicle: saline, higher = longer survival) was 96 % of control and the T/C (endpoint: median survival time, dose: 36.0 mg/kg/injection, schedule: Q01DX001 (ip), vehicle: saline, higher = longer survival) was 98 % of control.

For `CC[n+]1ccc(Nc2ccc(/C=C/c3ccc4cc(Nc5cc[n+](CC)cc5)ccc4[n+]3CC)cc2)cc1`, the T/C [3] was 95 % of control, the T/C [4] was 100 % of control and the T/C [5] was 91 % of control.

With `CC1=C(/C=C/C(C)=C/C=C/C(C)=C/CO)C(C)(C)CCC1` the T/C (endpoint: median survival time, dose: 4.0 mg/kg/injection, schedule: Q01DX005 (ip), vehicle: saline with Tween-80, higher = longer survival) was 108 % of control, the T/C (endpoint: median survival time, dose: 12.5 mg/kg/injection, schedule: Q01DX005 (ip), vehicle: saline with Tween-80, higher = longer survival) was 109 % of control and the T/C (endpoint: median survival time, dose: 16.0 mg/kg/injection, schedule: Q01DX005 (ip), vehicle: saline with Tween-80, higher = longer survival) was 111 % of control. For the same compound, the T/C (endpoint: median survival time, dose: 32.0 mg/kg/injection, schedule: Q01DX005 (ip), vehicle: saline with Tween-80, higher = longer survival) was 115 % of control, the T/C (endpoint: median survival time, dose: 64.0 mg/kg/injection, schedule: Q01DX005 (ip), vehicle: saline with Tween-80, higher = longer survival) was 191 % of control and the T/C (endpoint: median survival time, dose: 128.0 mg/kg/injection, schedule: Q01DX005 (ip), vehicle: saline with Tween-80, higher = longer survival) was 92 % of control.

`CCOC(=O)C(=CNc1cccc(Cl)c1)C(=O)OCC` was tested, and the T/C (endpoint: mean tumor weight, dose: 148.0 mg/kg/injection, schedule: Q01DX011 (ip), vehicle: other, higher = larger tumour) was 153 % of control and the T/C (endpoint: mean tumor weight, dose: 222.0 mg/kg/injection, schedule: Q01DX011 (ip), vehicle: other, higher = larger tumour) was 113 % of control.

For `C=C1C(=O)OC2CC(C)C3(O)CCC(C)(CC(OC(=O)C(C)C)C12)O3` (stereo not drawn), the T/C (endpoint: median survival time, dose: 50.0 mg/kg/injection, schedule: Q01DX009 (ip), vehicle: Klucel (hydroxypropylcellulose) (HPC), higher = longer survival) was 92 % of control and the T/C (endpoint: median survival time, dose: 100.0 mg/kg/injection, schedule: Q01DX009 (ip), vehicle: Klucel (hydroxypropylcellulose) (HPC), higher = longer survival) was 106 % of control.

`CC(C)CCSc1nc(N)nc2nc[nH]c12` was tested, and the T/C (endpoint: mean tumor weight, dose: 300.0 mg/kg/injection, schedule: Q01DX011 (ip), vehicle: other, higher = larger tumour) was 59 % of control.

For `CCCCCC(=O)O[C@]1(C(C)=O)CC[C@H]2[C@@H]3CCC4=CC(=O)CC[C@]4(C)[C@H]3CC[C@@]21C`, the T/C (endpoint: mean tumor weight, dose: 375.0 mg/kg/injection, schedule: Q01DX011 (sc), vehicle: steriod suspending solution, higher = larger tumour) was 89 % of control and 99 % of control and the T/C (endpoint: mean tumor weight, dose: 750.0 mg/kg/injection, schedule: Q01DX011 (sc), vehicle: steriod suspending solution, higher = larger tumour) was 91 % of control and 92 % of control.
